Row | melting point | Compound
1 | 139 to 140 °C | COc1ccccc1Oc1c(NS(=O)(=O)c2ccc(C(C)(C)C)cc2)nc(SC)nc1OCCO
2 | 96 to 96.5 °C | CCC(=C1SCN(C)CS1)c1ccc(Oc2ccccc2)cc1
3 | 187 to 188 °C | COC(=O)c1ccc(Cc2cccc3ccc(C=C(C)C(=O)O)cc23)c(OC)c1
4 | 77 °C | O=[N+]([O-])c1cccc([N+](=O)[O-])c1NCCO
5 | 222 °C | COC(=O)c1nc2cc(OC)c(OC)cc2n(C)c1=O
6 | 175 °C | N#Cc1cc(C(F)(F)F)cc(C(=O)Nc2ccc(Cl)c(Cl)c2)c1N1CCCCC1
7 | 193 °C | CN(C)c1cc(=S)ss1
8 | > 300 °C | Cn1cc(C(=O)O)c2nc3ncccc3cc2c1=O
9 | 77 to 78 °C | O=C(CCCCCNCC(O)c1ccccc1)OCc1ccccc1 (stereo not given)
10 | 130 to 132 °C | Nc1nc2ccccc2c2c1ncn2CCOCCCc1cccs1
11 | 157 to 160 °C | Cc1nnnn1-c1ccccc1C(=O)O
12 | 72 to 73 °C | CCOC(=O)CCCCC(=O)c1c(C)cc(C)c(C)c1O
13 | 212 to 213 °C | CC(=O)N[C@@H](CSC(c1ccccc1)(c1ccccc1)c1ccccc1)C(=O)NCCSC(=O)C(C)(C)C
14 | < 260 °C | NNc1nc2cc(Cl)c(Cl)cc2nc1Cl
15 | 183 to 184 °C | COc1ccc(-c2c(Cl)c(CN3CCN(C(C)=O)CC3)nc3sc4c(c23)CCN(Cc2ccccc2)C4)cc1OC
16 | 67 to 69 °C | CCC(=O)C(CCCCc1ccc(O)cc1)C(=O)CC
17 | 197 to 199 °C | Cc1c(C(=O)c2ccccc2F)n(N2C(=O)c3ccccc3C2=O)c2ccccc12
18 | 138 to 141 °C | CCCc1c(C(C)C)nc(C(C)C)c(CO)c1-c1ccc(F)cc1O
19 | 199 to 200 °C | COc1ccc(C(=O)Nc2ccc(F)cc2)cc1Nc1cc(C)cc(C)c1
20 | 148 to 151 °C | CSc1nc(C)nc(SC)c1NC(=O)CCCCCSc1nc2ccccc2o1
21 | 81 to 83 °C | CC(=O)Oc1cccc(C(=O)c2ccccc2)c1OC(C)=O
22 | 194 to 200 °C | Clc1ccc2nc(Cl)c3ncn(-c4ccccc4Cl)c3c2c1
23 | > 250 °C | CCOC(=O)C(C)Oc1ccc(N(C)c2nc(Cl)c3cc(Cl)ccc3n2)cc1 (stereo not given)
24 | 134 to 135 °C | CS(=O)(=O)c1ccc(C2=C(c3ccc(C(F)(F)F)cc3)CCC2)cc1
25 | 214 to 215 °C | CC(c1ccc(F)c(F)c1)n1ncc(-c2ccc(S(N)(=O)=O)cc2)c(-c2ccc(F)cc2)c1=O (stereo not given)

Row | melting point | Compound
26 | 63 to 65.5 °C | CCCc1cn(C(CC)C(=O)N(C)C)nc1-c1ccccc1 (stereo not given)
27 | 164 to 166 °C | COC1(c2cccc(S(=O)(=O)c3ccc4c(c3)C(C)(C)C(=O)N4C)c2)CCOCC1
28 | 207 to 208 °C | Cc1ccc2ccc(NCc3c(C)c(CNc4ccc5ccc(C)nc5n4)c(C)c(CNc4ccc5ccc(C)nc5n4)c3C)nc2n1
29 | 80 °C | CC(=O)SCC(=Cc1ccccc1)C(=O)NCCC(=O)OCc1ccccc1
30 | 110 to 112 °C | COc1ccc(CN[C@@H]2CCCC[C@H]2NCc2ccc(OC)cc2)cc1 (relative stereo)
31 | 185 to 195 °C | N#Cc1cnc2cnc(F)cc2c1Nc1cccc(Br)c1
32 | 260 to 261 °C | CCCc1nn(C)c2c(=O)[nH]c(Cc3ccc(NC=O)cc3)nc12
33 | 71 to 73 °C | CC(=O)SCCC(=O)Oc1ccc([N+](=O)[O-])cc1
34 | 147 to 150 °C | CCOC(=O)c1cn(C2CC2)c2cc(F)c(F)c(N(Cc3ccccc3)C(C)=O)c2c1=O
35 | 88 to 89 °C | CCn1c(=O)n(C)c(=O)c2c(C)onc21
36 | 164 to 168 °C | NC(=O)COCC(N)=S
37 | 210 to 212 °C | NN1C=NNC1=Cc1ccccc1O
38 | 164 to 166 °C | COc1ccc(C2CCN(C(=O)Nc3ccc4cc(CN5C(C)(C)CCCC5(C)C)ccc4c3)CC2)cc1
39 | 220 to 221 °C | COc1cc(OC)c(-c2cccs2)cc1/C=C/C(=O)c1ccc(S(=O)(=O)Nc2nccs2)cc1
40 | 51 to 54 °C | CCCCCCCCCCCCCCCCOC[C@H]1CCO[C@H](c2ccccc2)O1
41 | 100 to 102 °C | N#Cc1ccc(C=C(C(=O)C2CC2)C(=O)C2CC2)cc1
42 | 98 to 112 °C | CCC(=O)c1cc(C2(c3cccc(-c4cccnc4F)c3)N=C(N)N(C)C2=O)cs1 (stereo not given)
43 | 74 to 76 °C | O=c1c(Cl)c(Cl)cnn1C1CCCCO1 (stereo not given)
44 | 154 to 155 °C | O=S1(=O)NCN(C2CCCCCCC2)c2cc(Cl)c(Cl)cc21
45 | 140 °C | COc1cc2c(cc1OC)C(C(CO)CO)NCC2 (stereo not given)
46 | 159 to 160 °C | Nc1ccc(/C=C/c2ccccc2)nc1
47 | 236 °C | COc1cc2c(C=O)c[nH]c2c2c1OCCC2=O
48 | 243 to 244 °C | CCn1cc(C(=O)NN)c(=O)c2ccc(-c3ccccc3)cc21
49 | 216 °C | COc1ccc(-c2nc(N)ncc2-c2ccc(=O)n(C(C)C)n2)cc1
50 | 251 °C | O=C(Nc1cccc(S(=O)(=O)NCc2ccncc2)c1)c1cnn2c(C(F)(F)F)cc(-c3ccc(C(F)(F)F)cc3)nc12

Row | melting point | Compound
51 | > 285 °C | O=C(O)Cn1c(=O)c(=O)[nH]c2ccc(Cl)cc21
52 | 253 to 255 °C | COc1cc(OC)c2c(=O)cc(-c3n[nH]c4ccccc34)oc2c1
53 | 143 to 145 °C | C[C@H]1[C@H](O)[C@H](O)C(S(=O)(=O)c2ccccc2)=C[C@H](C)[C@H]1O
54 | 121 °C | NC(=O)c1ccc(F)c2c1CC(N(CCCc1c[nH]c3ccc(F)cc13)CC1CC1)CO2 (stereo not given)
55 | 148 °C | O=C(NN1CCCCC1)c1nn(-c2ccc(Cl)cc2Cl)c2c1SCc1cc(Cl)ccc1-2
56 | 268 °C | Cn1cc(OS(C)(=O)=O)c(=O)c2ccc(C#N)cc21
57 | 196 to 198 °C | CCC(CC)c1ccc(Cl)c2nc3n(c12)CCCCN3c1c(C)cc(C)cc1OC
58 | 238 to 241 °C | CC(c1oc2ccccc2c(=O)c1-c1cccc(F)c1)n1nc(-c2ccc3c(c2)CCO3)c2c(N)ncnc21 (stereo not given)
59 | 163 to 165 °C | CCCCCCCCCCCCCCCC(=O)Nc1cccc(C(=O)O)c1C
60 | 180 to 183 °C | Cc1nc(NCc2ccccc2)sc1-c1ccnc(Nc2ccc(N3CCOCC3)cc2)n1
61 | 250 to 252 °C | CCOC(=O)c1cc2n(C)c3ccc(C)cc3c(=O)n2n1
62 | 97 to 99 °C | C=C1CCc2onc(-c3ccccc3)c2C1=O
63 | 152 °C | COC(=O)c1ccc2nc(-c3ccc(C(C)(C)C)cc3)[nH]c2c1
64 | 155 to 158 °C | c1cncc(-c2cc(Oc3ccc4cccnc4c3)ncn2)c1
65 | 153 to 155 °C | CCc1nc2c(C)c(N)c(C)nc2[nH]1
66 | 244 to 246 °C | O=C(O)c1ccc2c(=O)n(Cc3ccc(Cl)cc3Cl)cnc2c1
67 | 107 to 108 °C | CCCC(C)c1nn(-c2ccc(C(F)(F)F)cn2)cc1CCCOc1c(CC(=O)O)cccc1OC (stereo not given)
68 | 153 to 156 °C | CSCC[C@H](N)C(=O)NC(=O)C(CS)Cc1ccccc1 (stereo not given in full)
69 | 53 to 54.5 °C | CN1Cc2ccccc2CC1c1ccc(C(C)(C)C)cc1 (stereo not given)
70 | 146 to 147 °C | O=C1C(Br)=C(c2ccccc2)C(=O)N1Nc1ccccc1
71 | 167 to 169 °C | COC(=O)c1ccc(OC)c(C=C2COc3ccc(OCc4ccccc4)cc3C2=O)c1
72 | 208 to 210 °C | CS(=O)(=O)NC1=CC(NC(=O)CCl)([N+](=O)[O-])CC=C1OC1CCCCC1 (stereo not given)
73 | 138 to 139 °C | Cc1cc(N)nc(CCCCCCCCCCO)c1O
74 | 217 to 219 °C | C#CCN1C(=O)COc2cc(F)c(N3C(=O)C4C5CC5CN4C3=O)cc21 (stereo not given)
75 | 202 to 203 °C | CC(=O)Nc1ccc(C(=S)N2CCCCC2)cc1

Row | melting point | Compound
76 | 84 to 86 °C | CCCCCCCCCc1ccc(C(=O)[C@@H]2CCCC[C@H]2C(=O)O)cc1 (relative stereo)
77 | 159 °C | Cc1cc(O)nc(Oc2cc(C(F)(F)F)nn2C)c1
78 | 121 to 122 °C | COC(=O)C(C)(C)Nc1ncc(I)cc1[N+](=O)[O-]
79 | 180 to 181 °C | COC1(c2cc(F)cc(S(=O)(=O)c3ccc(/C(C)=N/O)cc3)c2)CCOCC1
80 | 148 to 150 °C | COc1ccc(Cl)cc1NC(=O)[C@H]1[C@H](c2cccc(C)c2)C1(C)C (relative stereo)
81 | 188 to 191 °C | N=C(NCCCCC1CCN(CC(O)CO)CC1)NC(=O)c1nc(Cl)c(N)nc1N (stereo not given)
82 | 254 to 256 °C | Cn1cc(C2=C(c3cn(CCCCl)c4ccccc34)C(=O)NC2=O)c2ccccc21
83 | 77 to 78 °C | CCOC(=O)/C=C/c1ccc(C(C)(C)C)c([N+](=O)[O-])c1
84 | 295 °C | COc1ccc(-c2nnc3c4ccccc4c(Nc4ccc(N)cc4)nn23)cc1
85 | 192 to 193 °C | CC1(O)CCC2(C)C(CCC3C2CCC2(C)C(c4cc(CO)no4)CCC32)C1 (stereo not given)
86 | 83 °C | COc1cc(C=O)c(OC)cc1C
87 | 122 °C | CC(C)N(C)C(=O)C(Cc1ccc(C=O)cc1)NC(=O)OC(C)(C)C (stereo not given)
88 | 150 to 156 °C | CCc1ccccc1-c1cccc(-n2cnc(-c3nc(C)no3)c2)c1
89 | 93 to 95 °C | CCON=C(C)c1cccc(Oc2nc(OC)cc(OC)n2)c1C(=O)OC
90 | 135 to 137 °C | CC1(C)C=C(N2CCCC2=O)c2cc([N+](=O)[O-])ccc2O1
91 | 177 to 178 °C | COc1ccc2cccc(N3CCN(CCC4CC(=O)Nc5ccccc54)CC3)c2c1 (stereo not given)
92 | 105 to 115 °C | N=C(Nc1cc(Cl)cc(NC(=O)/C=C/c2ccccc2Cl)c1)c1ccccc1
93 | 117 to 118 °C | O=S(=O)(Nc1ccc(C(O)(C(F)(F)F)C(F)(F)F)cc1)c1ccccc1
94 | 111 to 112 °C | CCOC(=O)C(C)NC(=O)N(N(CCCl)S(C)(=O)=O)S(C)(=O)=O (stereo not given)
95 | 71 to 73 °C | CC(C)NCC(O)COc1ncccc1Cl (stereo not given)
96 | 140 to 144 °C | CC(=O)NC1CC(C)(C)N(OC2CCCCC2)C(C)(C)C1
97 | 145 to 147 °C | CCCCCCOC(=O)C(O)C1OC(n2cnc3c(N)ncnc32)C(O)C1O (stereo not given)

Row | Compound | melting point
98 | Cc1c(C2CCC(c3ccccc3)(N(C)C)CC2)[nH]c2ccc(OC(F)(F)F)cc12 (stereo not given) | 219 to 221 °C
99 | CC(C)OC(=O)Nc1cccc(-c2ccnc3c(C(=O)c4ccoc4)cnn23)c1 | 127 to 129 °C
100 | CCOC(=O)c1cnn2c(-c3cccc(C(F)(F)F)c3)ccnc12 | 97 to 99 °C

Source: a melting point compilation (Tetko et al.; mined from patent text by program, amines drawn as free bases though some values may be those of a salt)
